Data as given in US10676446B2, “Bicyclic quinazolinone derivatives” (Hoffmann-La Roche Inc., priority 2015, dated 2020).
pIC50: −log10 of the molar value.

Target: human ATX (autotaxin, ENPP2), His-tagged (Homo sapiens (Human), UniProt Q13822)
Assay: Human ATX enzyme inhibition assay (fluorescence quenching, MR121 substrate)
Format: biochemical
Details: 30 nM ATX, 1 μM MR121 substrate, 30° C., pH 8.0
Method: Human ATX Enzyme Inhibition Assay
ATX inhibition was measured by a fluorescence quenching assay using a specifically labeled substrate analogue (MR121 substrate). To obtain this MR121 substrate, BOC and TBS protected 6-amino-hexanoic acid (R)-3-({2-[3-(2-{2-[2-(2-amino-ethoxy)-ethoxy]-ethoxy}-ethoxy)-propionylamino]-ethoxy}-hydroxy-phosphoryloxy)-2-hydroxy-propyl ester (Ferguson et al., Org. Lett. 2006, 8, 2023) was labeled with MR121 fluorophore [CAS RN 185308-24-1], 1-(3-carboxypropyl)-11-ethyl-1,2,3,4,8,9,10,11-octahydro-dipyrido[3,2-b:2′,3′-i]phenoxazin-13-ium) on the free amine of the ethanolamine side and then, after deprotection, subsequently with tryptophan on the side of the aminohexanoic acid.
Assay working solutions were made as follows:
Assay buffer (50 mM Tris-HCl, 140 mM NaCl, 5 mM KCl, 1 mM CaCl2, 1 mM MgCl2, 0.01% Triton-X-100, pH 8.0;
ATX solution: ATX (human His-tagged) stock solution (1.08 mg/mL in 20 mM bicine, pH 8.5, 0.15 M NaCl, 10% glycerol, 0.3% CHAPS, 0.02% NaN3), diluted to 1.4-2.5× final concentration in assay buffer;
MR121 substrate solution: MR121 substrate stock solution (800 μM MR121 substrate in DMSO), diluted to 2-5× final concentration in assay buffer.
Test compounds (10 mM stock in DMSO, 8 μL) were obtained in 384 well sample plates (Corning Costar #3655) and diluted with 8 μL DMSO. Row-wise serial dilutions were made by transferring 8 μL cpd solution to the next row up to row O. The compound and control solutions were mixed five times and 2 μL were transferred to 384 well assay plates (Corning Costar #3702). Then, 15 μL of 41.7 nM ATX solution was added (30 nM final concentration), mixed five times and then incubated for 15 minutes at 30° C. 10 μL of MR121 substrate solution was added (1 μM final concentration), mixed 30 times and then incubated for 15 minutes at 30° C.

CN(Cc1ccc(Cl)c(Cl)c1)C(=O)Cn1cnc2ccc(N3CCN(CC4CC4)CC3)cc2c1=O [Example 104, 2-[6-[4-(Cyclopropylmethyl)piperazin-1-yl]-4-oxoquinazolin-3-yl]-N-[(3,4-dichlorophenyl)methyl]-N-methylacetamide]
pIC50: 7.19

COCCN1CCN(c2ccc3ncn(CC(=O)N(C)Cc4ccc(Cl)c(Cl)c4)c(=O)c3c2)CC1 [Example 105]
pIC50: 7.23

CN(Cc1ccc(Cl)c(Cl)c1)C(=O)Cn1cnc2ccc(N3CCN(CC4COC4)CC3)cc2c1=O [Example 106]
pIC50: 6.88

CNC(=O)CN1CCN(c2ccc3ncn(CC(=O)N(C)Cc4ccc(Cl)c(Cl)c4)c(=O)c3c2)CC1 [Example 107, N-[(3,4-Dichlorophenyl)methyl]-N-methyl-2-[6-[4-[2-(methylamino)-2-oxoethyl]piperazin-1-yl]-4-oxoquinazolin-3-yl]acetamide]
pIC50: 7.17

CN(C)C(=O)CN1CCN(c2ccc3ncn(CC(=O)N(C)Cc4ccc(Cl)c(Cl)c4)c(=O)c3c2)CC1 [Example 108]
pIC50: 7.26

CC(C)NC(=O)CN1CCN(c2ccc3ncn(CC(=O)N(C)Cc4ccc(Cl)c(Cl)c4)c(=O)c3c2)CC1 [Example 109]
pIC50: 7.46

CCN(CC)C(=O)CN1CCN(c2ccc3ncn(CC(=O)N(C)Cc4ccc(Cl)c(Cl)c4)c(=O)c3c2)CC1 [Example 110]
pIC50: 7.47

CN(Cc1ccc(Cl)c(Cl)c1)C(=O)Cn1cnc2ccc(N3CCN(CC(=O)N4CCOCC4)CC3)cc2c1=O [Example 111]
pIC50: 7.46

CN(Cc1ccc(Cl)c(Cl)c1)C(=O)Cn1cnc2ccc(N3CCN(CC(=O)Nc4ccccc4)CC3)cc2c1=O [Example 112]
pIC50: 7.15

N#Cc1ccc(CNC(=O)Cn2cnc3ccc(N4CCN(C(=O)C5COC5)CC4)cc3c2=O)c(Cl)c1 [Example 113, N-[(2-Chloro-4-cyanophenyl)methyl]-2-[6-[4-(oxetane-3-carbonyl)piperazin-1-yl]-4-oxoquinazolin-3-yl]acetamide]
pIC50: 6.69

CN(Cc1ccc(C#N)c(Cl)c1)C(=O)Cn1cnc2ccc(N3CCN(CC4CCOC4)CC3)cc2c1=O (stereo not drawn) [Example 114, N-[(3-Chloro-4-cyanophenyl)methyl]-N-methyl-2-[4-oxo-6-[4-(oxolan-3-ylmethyl)piperazin-1-yl]quinazolin-3-yl]acetamide]
pIC50: 7.59

CN(Cc1ccc(Cl)c(C#N)c1)C(=O)Cn1cnc2ccc(N3CCN(CC4CCOC4)CC3)cc2c1=O (stereo not drawn) [Example 115, N-[(4-Chloro-3-cyanophenyl)methyl]-N-methyl-2-[4-oxo-6-[4-(oxolan-3-ylmethyl)piperazin-1-yl]quinazolin-3-yl]acetamide]
pIC50: 7.54

CCN(Cc1ccc(Cl)c(Cl)c1)C(=O)Cn1cnc2ccc(N3CCN(C(C)=O)CC3)cc2c1=O [Example 116, 2-[6-(4-Acetylpiperazin-1-yl)-4-oxoquinazolin-3-yl]-N-[(3,4-dichlorophenyl)methyl]-N-ethylacetamide]
pIC50: 7.80

CC(=O)N1CCN(c2ccc3ncn(CC(=O)N(Cc4ccc(Cl)c(Cl)c4)C(C)C)c(=O)c3c2)CC1 [Example 117, 2-[6-(4-Acetylpiperazin-1-yl)-4-oxoquinazolin-3-yl]-N-[(3,4-dichlorophenyl)methyl]-N-propan-2-ylacetamide]
pIC50: 7.80

CC(=O)N1CCCN(c2ccc3ncn(CC(=O)NCc4ccc(C(F)(F)F)cc4)c(=O)c3c2)CC1 [Example 119]
pIC50: 6.19

CC(=O)N1CCCN(c2ccc3ncn(CC(=O)N(C)Cc4ccc(C#N)c(Cl)c4)c(=O)c3c2)CC1 [Example 120]
pIC50: 8.05

CC(=O)N1CCCN(c2ccc3ncn(CC(=O)N(C)Cc4ccc(Cl)c(C#N)c4)c(=O)c3c2)CC1 [Example 121]
pIC50: 7.70

CC(=O)N1CCC(c2ccc3ncn(CC(=O)NCc4ccc(Cl)c(Cl)c4)c(=O)c3c2)CC1 [Example 122]
pIC50: 7.92

CC(=O)N1CCC(c2ccc3ncn(CC(=O)NCc4ccc(C(F)(F)F)cc4)c(=O)c3c2)CC1 [Example 123]
pIC50: 7.17

CC(=O)N1CCC(c2ccc3ncn(CC(=O)N(C)Cc4ccc(Cl)c(Cl)c4)c(=O)c3c2)CC1 [Example 124]
pIC50: 8.15

CC(=O)N1CCC(c2ccc3ncn(CC(=O)N(C)Cc4ccc(C#N)c(Cl)c4)c(=O)c3c2)CC1 [Example 125]
pIC50: 8.15

CC(=O)N1CCC(c2ccc3ncn(CC(=O)N(C)Cc4ccc(Cl)c(C#N)c4)c(=O)c3c2)CC1 [Example 126]
pIC50: 7.92

CC(=O)N1CCC(c2ccc3ncn(CC(=O)N(C)Cc4ccc(C#N)c(F)c4)c(=O)c3c2)CC1 [Example 127]
pIC50: 8.05

CC(=O)N1CCC(c2ccc3ncn(CC(=O)N(C)Cc4ccc(Cl)c(OC(F)(F)F)c4)c(=O)c3c2)CC1 [Example 128, 2-[6-(1-Acetylpiperidin-4-yl)-4-oxoquinazolin-3-yl]-N-[[4-chloro-3-(trifluoromethoxy)phenyl]methyl]-N-methylacetamide]
pIC50: 7.82

CN(Cc1ccc(C#N)c(Cl)c1)C(=O)Cn1cnc2ccc(N3CCCN(CC4CCOC4)CC3)cc2c1=O (stereo not drawn) [Example 129, N-[(3-Chloro-4-cyanophenyl)methyl]-N-methyl-2-[4-oxo-6-[4-(oxolan-3-ylmethyl)-1,4-diazepan-1-yl]quinazolin-3-yl]acetamide]
pIC50: 7.59

CN(Cc1ccc(Cl)c(C#N)c1)C(=O)Cn1cnc2ccc(N3CCCN(CC4CCOC4)CC3)cc2c1=O (stereo not drawn) [Example 130, N-[(4-Chloro-3-cyanophenyl)methyl]-N-methyl-2-[4-oxo-6-[4-(oxolan-3-ylmethyl)-1,4-diazepan-1-yl]quinazolin-3-yl]acetamide]
pIC50: 6.95

CN(Cc1ccc(C#N)c(Cl)c1)C(=O)Cn1cnc2ccc(C3CCN(C(=O)CO)CC3)cc2c1=O [Example 131, N-[(3-Chloro-4-cyanophenyl)methyl]-2-[6-[1-(2-hydroxyacetyl)piperidin-4-yl]-4-oxoquinazolin-3-yl]-N-methylacetamide]
pIC50: 9.00

COCC(=O)N1CCC(c2ccc3ncn(CC(=O)N(C)Cc4ccc(C#N)c(Cl)c4)c(=O)c3c2)CC1 [Example 132]
pIC50: 7.92

COC(C)C(=O)N1CCC(c2ccc3ncn(CC(=O)N(C)Cc4ccc(C#N)c(Cl)c4)c(=O)c3c2)CC1 (stereo not drawn) [Example 133]
pIC50: 9.00

COCCC(=O)N1CCC(c2ccc3ncn(CC(=O)N(C)Cc4ccc(C#N)c(Cl)c4)c(=O)c3c2)CC1 [Example 134]
pIC50: 9.00

CC(C)OCC(=O)N1CCC(c2ccc3ncn(CC(=O)N(C)Cc4ccc(C#N)c(Cl)c4)c(=O)c3c2)CC1 [Example 135]
pIC50: 9.00

CN(Cc1ccc(C#N)c(Cl)c1)C(=O)Cn1cnc2ccc(C3CCN(C(=O)C4CC4)CC3)cc2c1=O [Example 136]
pIC50: 9.00

CN(Cc1ccc(C#N)c(Cl)c1)C(=O)Cn1cnc2ccc(C3CCN(C(=O)C4CCC4)CC3)cc2c1=O [Example 137]
pIC50: 8.70

CN(Cc1ccc(C#N)c(Cl)c1)C(=O)Cn1cnc2ccc(C3CCN(C(=O)C4CC(F)C4)CC3)cc2c1=O (stereo not drawn) [Example 138]
pIC50: 8.52

CN(Cc1ccc(C#N)c(Cl)c1)C(=O)Cn1cnc2ccc(C3CCN(C(=O)C4CC(Cl)C4)CC3)cc2c1=O (stereo not drawn) [Example 139]
pIC50: 7.74

CN(Cc1ccc(C#N)c(Cl)c1)C(=O)Cn1cnc2ccc(C3CCN(C(=O)C4CC(F)(F)C4)CC3)cc2c1=O [Example 140]
pIC50: 7.33

CN(Cc1ccc(C#N)c(Cl)c1)C(=O)Cn1cnc2ccc(C3CCN(C(=O)C4CCO4)CC3)cc2c1=O (stereo not drawn) [Example 141]
pIC50: 8.70

CN(Cc1ccc(C#N)c(Cl)c1)C(=O)Cn1cnc2ccc(C3CCN(C(=O)C4COC4)CC3)cc2c1=O [Example 142]
pIC50: 7.22

CN(Cc1ccc(C#N)c(Cl)c1)C(=O)Cn1cnc2ccc(C3CCN(CC4CCOC4)CC3)cc2c1=O (stereo not drawn) [Example 143, N-[(3-Chloro-4-cyanophenyl)methyl]-N-methyl-2-[4-oxo-6-[1-(oxolan-3-ylmethyl)piperidin-4-yl]quinazolin-3-yl]acetamide]
pIC50: 7.34

CN(Cc1ccc(Cl)c(C#N)c1)C(=O)Cn1cnc2ccc(C3CCN(CC4CCOC4)CC3)cc2c1=O (stereo not drawn) [Example 144, N-[(4-Chloro-3-cyanophenyl)methyl]-N-methyl-2-[4-oxo-6-[1-(oxolan-3-ylmethyl)piperidin-4-yl]quinazolin-3-yl]acetamide]
pIC50: 7.07

CN(Cc1ccc(C#N)c(Cl)c1)C(=O)Cn1cnc2ccc(C3CCN(S(C)(=O)=O)CC3)cc2c1=O [Example 145, N-[(3-Chloro-4-cyanophenyl)methyl]-N-methyl-2-[6-(1-methylsulfonylpiperidin-4-yl)-4-oxoquinazolin-3-yl]acetamide]
pIC50: 7.09

COCC(=O)N1CCC(c2ccc3ncn(CC(=O)N(Cc4ccc(Cl)c(Cl)c4)C4CC4)c(=O)c3c2)CC1 [Example 146, N-Cyclopropyl-N-[(3,4-dichlorophenyl)methyl]-2-[6-[1-(2-methoxyacetyl)piperidin-4-yl]-4-oxoquinazolin-3-yl]acetamide]
pIC50: 9.00
